Measured values: the NIST ThermoML archive (doi:10.1016/j.jct.2013.12.022)
± gives the expanded uncertainty stated by the source.

What was measured:
[1] = 100 kPa, Liquid; for viscosity: Cone and plate viscometry; for mass density: Vibrating tube method
[2] = wn = mass fraction of the nth substance listed; details: 100 kPa, Liquid, w1 = 0.8465; for viscosity: Cone and plate viscometry; for mass density: Vibrating tube method

| SMILES | viscosity ([1]; 288.15 K) [mPa·s] | mass density ([1]; 288.15 K) [kg/m3] | viscosity ([1]; 293.15 K) [mPa·s] | mass density ([1]; 293.15 K) [kg/m3] | viscosity ([1]; 298.15 K) [mPa·s] | mass density ([1]; 298.15 K) [kg/m3] | viscosity ([1]; 303.15 K) [mPa·s] | mass density ([1]; 303.15 K) [kg/m3] | viscosity ([1]; 308.15 K) [mPa·s] | mass density ([1]; 308.15 K) [kg/m3] | viscosity ([1]; 313.15 K) [mPa·s] | mass density ([1]; 313.15 K) [kg/m3] | viscosity ([1]; 318.15 K) [mPa·s] | mass density ([1]; 318.15 K) [kg/m3] | viscosity ([1]; 323.15 K) [mPa·s] | mass density ([1]; 323.15 K) [kg/m3] | viscosity ([1]; 328.15 K) [mPa·s] | mass density ([1]; 328.15 K) [kg/m3] | viscosity ([1]; 333.15 K) [mPa·s] | mass density ([1]; 333.15 K) [kg/m3] | other results |
| --- | --- | --- | --- | --- | --- | --- | --- | --- | --- | --- | --- | --- | --- | --- | --- | --- | --- | --- | --- | --- | --- |
| CC(CC(C)(C)C)CP(=O)([O-])CC(C)CC(C)(C)C.CCCCCCCCCCCCCC[P+](CCCCCC)(CCCCCC)CCCCCC | 1953 ± 180 | 890.86 ± 4.3 | 1446.3 ± 130 | 887.72 ± 4.3 | 1058.2 ± 91 | 884.55 ± 4.3 | 782.72 ± 65 | 881.54 ± 4.2 | 587.62 ± 47 | 878.58 ± 4.2 | 447.95 ± 34 | 875.62 ± 4.2 | 346.95 ± 26 | 872.67 ± 4.2 | 272.37 ± 20 | 869.72 ± 4.1 | 217.4 ± 15 | 866.77 ± 4.1 | 175.07 ± 12 | 863.87 ± 4.1 | mass density ([1]; 338.15 K): 860.99 ± 4.1 kg/m3; mass density ([1]; 343.15 K): 858.1 ± 4 kg/m3; mass density ([1]; 348.15 K): 855.22 ± 4 kg/m3; viscosity ([1]; 353.15 K): 80.99 ± 5.3 mPa·s; mass density ([1]; 353.15 K): 852.33 ± 4 kg/m3; mass density ([1]; 358.15 K): 849.44 ± 4 kg/m3; mass density ([1]; 363.15 K): 846.56 ± 3.9 kg/m3; viscosity ([1]; 373.15 K): 42.79 ± 2.8 mPa·s; viscosity ([1]; 393.15 K): 24.53 ± 1.6 mPa·s; viscosity ([1]; 413.15 K): 15.44 ± 1 mPa·s; viscosity ([1]; 433.15 K): 10.17 ± 0.66 mPa·s |
| CC(CC(C)(C)C)CP(=O)([O-])CC(C)CC(C)(C)C.CCCCCCCCCCCCCC[P+](CCCCCC)(CCCCCC)CCCCCC + O | – | – | – | – | – | – | – | – | – | – | – | – | – | – | – | – | – | – | – | – | viscosity ([2]; 288.15 K): 286.96 ± 21 mPa·s; mass density ([2]; 288.15 K): 921.09 ± 3.5 kg/m3; viscosity ([2]; 293.15 K): 211.13 ± 15 mPa·s; mass density ([2]; 293.15 K): 917.76 ± 3.5 kg/m3; viscosity ([2]; 298.15 K): 156.74 ± 11 mPa·s; mass density ([2]; 298.15 K): 914.4 ± 3.5 kg/m3; viscosity ([2]; 303.15 K): 119.54 ± 7.9 mPa·s; mass density ([2]; 303.15 K): 911.03 ± 3.5 kg/m3; viscosity ([2]; 308.15 K): 93.22 ± 6.1 mPa·s; mass density ([2]; 308.15 K): 907.66 ± 3.4 kg/m3; viscosity ([2]; 313.15 K): 74.08 ± 4.8 mPa·s; mass density ([2]; 313.15 K): 904.29 ± 3.4 kg/m3; viscosity ([2]; 318.15 K): 60.01 ± 3.8 mPa·s; mass density ([2]; 318.15 K): 900.95 ± 3.4 kg/m3; viscosity ([2]; 323.15 K): 49.03 ± 3.1 mPa·s; mass density ([2]; 323.15 K): 897.66 ± 3.4 kg/m3; viscosity ([2]; 328.15 K): 40.7 ± 2.6 mPa·s; mass density ([2]; 328.15 K): 894.18 ± 3.3 kg/m3; viscosity ([2]; 333.15 K): 34.16 ± 2.2 mPa·s; mass density ([2]; 333.15 K): 890.61 ± 3.3 kg/m3 |
| CCCCCCCCCCCC [dodecane] | 1.58 ± 0.1 | 753.43 ± 0.59 | 1.47 ± 0.09 | 749.81 ± 0.58 | 1.35 ± 0.08 | 746.18 ± 0.58 | 1.24 ± 0.08 | 742.55 ± 0.58 | 1.14 ± 0.07 | 738.91 ± 0.57 | 1.06 ± 0.07 | 735.26 ± 0.57 | 0.99 ± 0.06 | 731.61 ± 0.57 | 0.93 ± 0.06 | 727.95 ± 0.57 | 0.87 ± 0.05 | 724.29 ± 0.56 | 0.82 ± 0.05 | 720.61 ± 0.56 | – |
